In PubChem BioAssay (NCI) one finds GI50 and TGI data, which are given here for seven compounds.

Some test systems named below: UO-31 renal; PC-3 prostate; SF-295 CNS; K-562 leukemia; OVCAR-8 ovarian; OVCAR-4 ovarian; BT-549 breast; NCI/ADR-RES ovarian; HOP-92 NSCLC; SW-620 colon.
What all share (test): NCI anticancer screen, dose series, 48 h

Where “and” joins values, the source holds several entries; their conditions need not be identical. Equal values may be shown once.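 Dose response: 5 concentrations. Exposure: 48 h. Format: 96-well plates. Endpoint: linear interpolation; highest concentration if not reached. The concentration for 50% growth inhibition is given as GI50. TGI: total growth inhibition.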

Consider `CCCCNCCCCCNc1cc(OC)cc2cccnc12`, for which the GI50 in the assay on UO-31 renal was 13.4 µM; in the assay with PC-3 prostate it was 15.2 µM; in the assay on SF-295 CNS, 28.4 µM; in the assay on K-562 leukemia, 20.4 µM; in the assay on OVCAR-8 ovarian it was 17.8 µM; in the assay with OVCAR-4 ovarian, 26.2 µM. The GI50 in the assay with BT-549 breast was 14.5 µM; in the assay with NCI/ADR-RES ovarian it was 17.2 µM; in the assay with HOP-92 NSCLC, 2.77 µM; with SW-620 colon, 19.2 µM. In addition, the TGI in the assay on UO-31 renal is 27.2 µM; in the assay with PC-3 prostate, 34.7 µM; in the assay on SF-295 CNS, 84.9 µM; in the assay with K-562 leukemia, 44.8 µM; with OVCAR-8 ovarian, 37.6 µM; in the assay on OVCAR-4 ovarian it was above 100 µM. Moreover, the TGI in the assay on BT-549 breast stood at 28.8 µM; with NCI/ADR-RES ovarian it was 36.4 µM; in the assay on HOP-92 NSCLC, 23 µM; with SW-620 colon, 39.4 µM.
Turning to `O=c1[nH]c(=O)n(C2OC(CO)C(O)C2O)cc1F` (stereo unspecified), the TGI in the assay with UO-31 renal is 1.91 µM; in the assay on PC-3 prostate it was above 100 µM; in the assay with SF-295 CNS, above 100 µM; in the assay with K-562 leukemia, above 100 µM; with OVCAR-8 ovarian, above 100 µM; in the assay with OVCAR-4 ovarian it was 17.7 µM. Further, the TGI in the assay with BT-549 breast, in the assay on NCI/ADR-RES ovarian, in the assay with HOP-92 NSCLC and in the assay on SW-620 colon was above 100 µM in each case. Also, the GI50 in the assay on K-562 leukemia is 0.018 µM; with HOP-92 NSCLC, 24.9 µM; in the assay on SW-620 colon, 0.0314 µM.
On to `CCC(=C(c1ccc(OCCN2CCCC2)cc1)c1ccc(OCCN2CCCC2)cc1)c1ccc(Cl)cc1`, for which the GI50 with UO-31 renal is 0.5 µM; with PC-3 prostate it was 0.569 µM; with SF-295 CNS, 0.637 µM; in the assay with K-562 leukemia, 0.226 µM; in the assay on OVCAR-8 ovarian, 0.692 µM; with OVCAR-4 ovarian, 0.667 µM. Besides, the GI50 was 0.733 µM in the assay with BT-549 breast, 0.599 µM in the assay with NCI/ADR-RES ovarian, 0.482 µM with HOP-92 NSCLC and 0.554 µM in the assay on SW-620 colon. The TGI in the assay on UO-31 renal stood at 0.965 µM; in the assay on PC-3 prostate, 1.2 µM; in the assay with SF-295 CNS it was 1.23 µM; in the assay on K-562 leukemia it was 0.751 µM; in the assay on OVCAR-8 ovarian, 1.57 µM; in the assay on OVCAR-4 ovarian, 1.43 µM. The TGI was 1.86 µM in the assay with BT-549 breast, 1.15 µM in the assay with NCI/ADR-RES ovarian, 1.04 µM in the assay on HOP-92 NSCLC and 1.09 µM in the assay with SW-620 colon.
Take `COc1ccc2c(c1)C(=O)c1c-2n(CCCCl)c(=O)c2cc(N)ccc12`: the GI50 in the assay with UO-31 renal was above 100 µM; in the assay on PC-3 prostate, above 72.8 µM; with SF-295 CNS it was above 64.6 µM; in the assay on K-562 leukemia it was above 48.7 µM; in the assay on OVCAR-8 ovarian, above 100 µM; with OVCAR-4 ovarian, above 96.7 µM. Besides, the GI50 is above 100 µM with BT-549 breast, above 100 µM in the assay on NCI/ADR-RES ovarian, 21.2 µM with HOP-92 NSCLC and above 68.1 µM in the assay with SW-620 colon. In addition, the TGI in the assay with UO-31 renal, in the assay on PC-3 prostate, in the assay with SF-295 CNS, in the assay with K-562 leukemia, in the assay on OVCAR-8 ovarian and in the assay on OVCAR-4 ovarian was above 100 µM each time. The TGI with BT-549 breast, in the assay on NCI/ADR-RES ovarian, in the assay with HOP-92 NSCLC and in the assay on SW-620 colon was above 100 µM in each case.
`CC1(C)CC[C@]2(CO)CC[C@]3(C)C(=CC[C@@H]4[C@@]5(C)CCNCC(C)(C)[C@@H]5CC[C@]43C)[C@@H]2C1`: the GI50 is 5.33 µM with UO-31 renal; 4.32 µM in the assay on PC-3 prostate; 1.93 µM in the assay on SF-295 CNS; 2.6 µM in the assay with K-562 leukemia; 4.77 µM in the assay on OVCAR-8 ovarian; 7.66 µM with OVCAR-4 ovarian. For the same compound, the GI50 is 4.79 µM in the assay on BT-549 breast, 9.4 µM with NCI/ADR-RES ovarian, 1.4 µM with HOP-92 NSCLC and 1.97 µM in the assay on SW-620 colon. Further, the TGI with UO-31 renal turned out to be 21.2 µM; in the assay on PC-3 prostate it was 18.3 µM; with SF-295 CNS, 3.97 µM; in the assay with K-562 leukemia it was 16.5 µM; in the assay with OVCAR-8 ovarian it was 24.8 µM; with OVCAR-4 ovarian it was 24 µM. The TGI with BT-549 breast is 18.3 µM; in the assay with NCI/ADR-RES ovarian it was 24.9 µM; in the assay on HOP-92 NSCLC it was 4.14 µM; in the assay on SW-620 colon, 4.41 µM.
Take `NC(Cc1c[nH]c2cccc(F)c12)C(=O)O` (stereo unspecified): the GI50 with UO-31 renal was 842 µM; with SF-295 CNS, 39.5 µM and 176 µM; with K-562 leukemia it was 68.5 µM and 269 µM; in the assay with OVCAR-8 ovarian, 72.5 µM and 522 µM; in the assay with BT-549 breast it was 151 µM; in the assay on NCI/ADR-RES ovarian it was 63.9 µM and 418 µM. Further, the GI50 with HOP-92 NSCLC is 4110 µM; with SW-620 colon, 47.7 µM and 279 µM. In addition, the TGI with UO-31 renal is above 4500 µM; in the assay on PC-3 prostate, above 4500 µM; in the assay on SF-295 CNS, 1190 µM; in the assay with K-562 leukemia, above 4500 µM; with OVCAR-8 ovarian, 2820 µM; with OVCAR-4 ovarian it was above 4500 µM. The TGI in the assay on BT-549 breast is 873 µM; in the assay on NCI/ADR-RES ovarian, 2360 µM; in the assay with HOP-92 NSCLC, above 4500 µM; in the assay with SW-620 colon it was 1020 µM.
Take `OCC1OC(n2cnc3c(NCc4ccco4)ncnc32)C(O)C1O` (stereo unspecified): the GI50 is 0.567 µM in the assay on UO-31 renal; 1.33 µM in the assay on PC-3 prostate; 1.21 µM in the assay on SF-295 CNS; 4.47 µM with K-562 leukemia; 0.16 µM in the assay on OVCAR-8 ovarian; 2.8 µM in the assay on OVCAR-4 ovarian. Also, the GI50 in the assay with BT-549 breast was 0.421 µM; with NCI/ADR-RES ovarian, 0.675 µM; with HOP-92 NSCLC, 0.442 µM; in the assay on SW-620 colon, 0.849 µM. Also, the TGI in the assay with UO-31 renal was 53.7 µM; in the assay with PC-3 prostate, 19.1 µM; with SF-295 CNS, 8.3 µM; in the assay on K-562 leukemia it was above 100 µM; with OVCAR-8 ovarian, 3.6 µM; in the assay on OVCAR-4 ovarian, 18.8 µM. The TGI was 2.64 µM in the assay on BT-549 breast, above 35.7 µM in the assay on NCI/ADR-RES ovarian, 5.1 µM in the assay with HOP-92 NSCLC and above 100 µM in the assay with SW-620 colon.
